According to US20200222474A1, “COMPOSITIONS AND METHODS FOR INCREASING PHYTOCHEMICAL BIOAVAILABLITY AND BIOACTIVITY” (North Carolina State University, priority 2017, published 2020):

Test system: L. acidophilus NCFM
Test: RNA-seq transcriptional analysis of L. acidophilus NCFM growing on plant glycosides
Type: cell-based, Lactobacillus acidophilus
[1] = gene LBA0282 (Hypothetical protein)
[2] = gene LBA0327 (Replication protein)
[3] = gene LBA0328 (Hypothetical protein)
[4] = gene LBA0330 (Hypothetical protein)
[5] = gene LBA0457 (Hypothetical protein)
[6] = gene LBA0485 (Hypothetical protein)
[7] = gene LBA0486 (Hypothetical protein)
[8] = gene LBA0487 (Hypothetical protein.)
[9] = gene LBA0492 (Hypothetical protein)
[10] = gene LBA0541 (Cadmium-transporting ATPase)
[11] = gene LBA0542 (Putative heavy-metal-transporting alpase)
[12] = gene LBA0543 (Hypothetical protein)
[13] = gene LBA0544 (Transcriptional regulator)
[14] = gene LBA0555 (Myosin-crossreactive antigen)
[15] = gene LBA0564 (HAD family hydrolase)
[16] = gene LBA0574 (ABC multi drug exporter)
[17] = gene LBA0575 (ABC multi drug exporter)
[18] = gene LBA0604 (Immunity protein)
[19] = gene LBA0605 (Putative hydrolase)
[20] = gene LBA0608 (Hypothetical protein)
[21] = gene LBA0631 (Hypothetical protein)
[22] = gene LBA0649 (Myosin-crossreactive antigen)
[23] = gene LBA0728 (Hypothetical protein LBA0728)
[24] = gene LBA1025 (Aldo/keto reductase family oxidoreductase)
[25] = gene LBA1026 (Aldo/keto reduetase family oxidoreductase)
[26] = gene LBA1206 (Hypothetical protein)
[27] = gene LBA1401 (Peroxidase (Npx))
[28] = gene LBA1435 (Hypothetical protein)
[29] = gene LBA1455 (Putative surface layer protein)
[30] = gene LBA1469 (UDP-glucose 4-epimerase)
[31] = gene LBA1656 (Hypothetical protein)
[32] = gene LBA1675 (Hypothetical protein)
[33] = gene LBA1676 (ATP-dependent helicase)
[34] = gene LBA1683 (Putative magnesium-transporting atpase)
[35] = gene LBA1704 (N-Acetylmuramic acid-6-phosphate etherase)
[36] = gene LBA1740 (Hypothetical protein)
[37] = gene LBA1752 (Hypothetical protein)
[38] = gene LBA1769 (Hypothetical protein)
[39] = gene LBA1793 (Hypothetical protein)
[40] = gene LBA1869 (Beta-phosphoglueomutase)
[41] = gene LBA1895 (Hypothetical protein)
[42] = nTPM on plant glycoside relative to glucose, mid-exponential phase

## N#C[C@H](O[C@@H]1O[C@H](CO[C@@H]2O[C@H](CO)[C@@H](O)[C@H](O)[C@H]2O)[C@@H](O)[C@H](O)[C@H]1O)c1ccccc1 [Amygdalin]
[1]
  Log2 differential normalized TPM ratio compared to glucose: 0.2
  Log2 differential normalized TPM ratio compared to lactose: −0.4
  Transcripts per million (rpm): 20 rpm
[2]
  Log2 differential normalized TPM ratio compared to glucose: −0.9
  Log2 differential normalized TPM ratio compared to lactose: −1.1
  Transcripts per million (rpm): 3.5 rpm
[3]
  Log2 differential normalized TPM ratio compared to glucose: −0.3
  Log2 differential normalized TPM ratio compared to lactose: −0.3
  Transcripts per million (rpm): 9 rpm
[4]
  Log2 differential normalized TPM ratio compared to glucose: 0.1
  Log2 differential normalized TPM ratio compared to lactose: −0.2
  Transcripts per million (rpm): 18.2 rpm
[5]
  Log2 differential normalized TPM ratio compared to glucose: 1.6
  Log2 differential normalized TPM ratio compared to lactose: 0.6
  Transcripts per million (rpm): 1217.8 rpm
[6]
  Log2 differential normalized TPM ratio compared to glucose: 3.3
  Log2 differential normalized TPM ratio compared to lactose: 0.9
  Transcripts per million (rpm): 1655 rpm
[7]
  Log2 differential normalized TPM ratio compared to glucose: 3.7
  Log2 differential normalized TPM ratio compared to lactose: 0.9
  Transcripts per million (rpm): 2443 rpm
[8]
  Log2 differential normalized TPM ratio compared to glucose: 2.3
  Log2 differential normalized TPM ratio compared to lactose: 1
  Transcripts per million (rpm): 132.1 rpm
[9]
  Log2 differential normalized TPM ratio compared to glucose: 5
  Log2 differential normalized TPM ratio compared to lactose: 2.6
  Transcripts per million (rpm): 213.1 rpm
[10]
  Log2 differential normalized TPM ratio compared to glucose: 2
  Log2 differential normalized TPM ratio compared to lactose: −0.2
  Transcripts per million (rpm): 119.7 rpm
[11]
  Log2 differential normalized TPM ratio compared to glucose: 2.2
  Log2 differential normalized TPM ratio compared to lactose: 0
  Transcripts per million (rpm): 320.9 rpm
[12]
  Log2 differential normalized TPM ratio compared to glucose: 2.4
  Log2 differential normalized TPM ratio compared to lactose: 0
  Transcripts per million (rpm): 283.1 rpm
[13]
  Log2 differential normalized TPM ratio compared to glucose: 1.9
  Log2 differential normalized TPM ratio compared to lactose: −0.1
  Transcripts per million (rpm): 321.3 rpm
[14]
  Log2 differential normalized TPM ratio compared to glucose: 6
  Log2 differential normalized TPM ratio compared to lactose: 4.1
  Transcripts per million (rpm): 2251.5 rpm
[15]
  Log2 differential normalized TPM ratio compared to glucose: 2.3
  Log2 differential normalized TPM ratio compared to lactose: 1.8
  Transcripts per million (rpm): 4.1 rpm
[16]
  Log2 differential normalized TPM ratio compared to glucose: −1.2
  Log2 differential normalized TPM ratio compared to lactose: −1.5
  Transcripts per million (rpm): 31.9 rpm
[17]
  Log2 differential normalized TPM ratio compared to glucose: −1
  Log2 differential normalized TPM ratio compared to lactose: −1.2
  Transcripts per million (rpm): 32.6 rpm
[18]
  Log2 differential normalized TPM ratio compared to glucose: 2
  Log2 differential normalized TPM ratio compared to lactose: 1.6
  Transcripts per million (rpm): 49.6 rpm
[19]
  Log2 differential normalized TPM ratio compared to glucose: 3.6
  Log2 differential normalized TPM ratio compared to lactose: 2.6
  Transcripts per million (rpm): 26.3 rpm
[20]
  Log2 differential normalized TPM ratio compared to glucose: 3.1
  Log2 differential normalized TPM ratio compared to lactose: 2
  Transcripts per million (rpm): 239.3 rpm
[21]
  Log2 differential normalized TPM ratio compared to glucose: 7.2
  Log2 differential normalized TPM ratio compared to lactose: 4
  Transcripts per million (rpm): 141786.9 rpm
[22]
  Log2 differential normalized TPM ratio compared to glucose: 2.9
  Log2 differential normalized TPM ratio compared to lactose: 2.1
  Transcripts per million (rpm): 228.6 rpm
[23]
  Log2 differential normalized TPM ratio compared to glucose: 6
  Log2 differential normalized TPM ratio compared to lactose: 4.2
  Transcripts per million (rpm): 129.5 rpm
Gene LBA0861 (Polyferredoxin)
  Log2 differential normalized TPM ratio compared to glucose: 0
  Log2 differential normalized TPM ratio compared to lactose: −0.5
  Transcripts per million (rpm): 153 rpm
Gene LBA1023 (Oxidoreductase)
  Log2 differential normalized TPM ratio compared to glucose: −1.5
  Log2 differential normalized TPM ratio compared to lactose: −1.8
  Transcripts per million (rpm): 18.8 rpm
[24]
  Log2 differential normalized TPM ratio compared to glucose: −1.8
  Log2 differential normalized TPM ratio compared to lactose: −1.8
  Transcripts per million (rpm): 7.2 rpm
[25]
  Log2 differential normalized TPM ratio compared to glucose: −1.7
  Log2 differential normalized TPM ratio compared to lactose: −2.1
  Transcripts per million (rpm): 8.1 rpm
Gene LBA1027 (Oxidoreductase)
  Log2 differential normalized TPM ratio compared to glucose: 2.9
  Log2 differential normalized TPM ratio compared to lactose: 1.4
  Transcripts per million (rpm): 3613.2 rpm
[26]
  Log2 differential normalized TPM ratio compared to glucose: 3.2
  Log2 differential normalized TPM ratio compared to lactose: 2
  Transcripts per million (rpm): 984.2 rpm
[27]
  Log2 differential normalized TPM ratio compared to glucose: 4.4
  Log2 differential normalized TPM ratio compared to lactose: 2.3
  Transcripts per million (rpm): 1161.2 rpm
[28]
  Log2 differential normalized TPM ratio compared to glucose: 7.1
  Log2 differential normalized TPM ratio compared to lactose: 3.3
  Transcripts per million (rpm): 468.3 rpm
[29]
  Log2 differential normalized TPM ratio compared to glucose: 2.4
  Log2 differential normalized TPM ratio compared to lactose: 0.8
  Transcripts per million (rpm): 73.9 rpm
[30]
  Log2 differential normalized TPM ratio compared to glucose: 2.4
  Log2 differential normalized TPM ratio compared to lactose: −2.6
  Transcripts per million (rpm): 385.3 rpm
[31]
  Log2 differential normalized TPM ratio compared to glucose: 2.6
  Log2 differential normalized TPM ratio compared to lactose: 2.1
  Transcripts per million (rpm): 103.5 rpm
[32]
  Log2 differential normalized TPM ratio compared to glucose: 2.1
  Log2 differential normalized TPM ratio compared to lactose: 0.6
  Transcripts per million (rpm): 1397.9 rpm
[33]
  Log2 differential normalized TPM ratio compared to glucose: 1.9
  Log2 differential normalized TPM ratio compared to lactose: 0.7
  Transcripts per million (rpm): 953.4 rpm
[34]
  Log2 differential normalized TPM ratio compared to glucose: 2
  Log2 differential normalized TPM ratio compared to lactose: 2.3
  Transcripts per million (rpm): 53.6 rpm
[35]
  Log2 differential normalized TPM ratio compared to glucose: 2.1
  Log2 differential normalized TPM ratio compared to lactose: 1.4
  Transcripts per million (rpm): 23 rpm
[36]
  Log2 differential normalized TPM ratio compared to glucose: 0.1
  Log2 differential normalized TPM ratio compared to lactose: −0.7
  Transcripts per million (rpm): 15.4 rpm
[37]
  Log2 differential normalized TPM ratio compared to glucose: 0.8
  Log2 differential normalized TPM ratio compared to lactose: 0
  Transcripts per million (rpm): 12.1 rpm
[38]
  Log2 differential normalized TPM ratio compared to glucose: 3
  Log2 differential normalized TPM ratio compared to lactose: 1.2
  Transcripts per million (rpm): 10240.4 rpm
[39]
  Log2 differential normalized TPM ratio compared to glucose: 2.3
  Log2 differential normalized TPM ratio compared to lactose: −0.5
  Transcripts per million (rpm): 67 rpm
Gene LBA1796 (ABC exporter)
  Log2 differential normalized TPM ratio compared to glucose: 2.4
  Log2 differential normalized TPM ratio compared to lactose: −0.1
  Transcripts per million (rpm): 39.3 rpm
[40]
  Log2 differential normalized TPM ratio compared to glucose: 6.7
  Log2 differential normalized TPM ratio compared to lactose: 4.2
  Transcripts per million (rpm): 670.5 rpm
[41]
  Log2 differential normalized TPM ratio compared to glucose: 2.8
  Log2 differential normalized TPM ratio compared to lactose: 2.6
  Transcripts per million (rpm): 152.2 rpm
[42]
  Log2 Ratio vs Glc, LBA0225 Phospho-β-glucosidase (GH1): 6.5
  Log2 Ratio vs Glc, LBA0227 PTS EIIC: 9.9
  Log2 Ratio vs Glc, LBA0228 Transcriptional regulator: 6.3
  Log2 Ratio vs Glc, LBA0466 Phosphoenolpyruvate carboxykinase (ATP): 5.2
  Log2 Ratio vs Glc, LBA0491 PTS EIIC: 4.7
  Log2 Ratio vs Glc, LBA0492 Hypothetical protein: 5
  Log2 Ratio vs Glc, LBA0555 Myosin-cross-reactive antigen/Fatty acid hydratase: 6
  Log2 Ratio vs Glc, LBA0606 PTS EIIBC: 4.9
  Log2 Ratio vs Glc, LBA0631 Hypothetical protein: 7.2
  Log2 Ratio vs Glc, LBA0724 Transcriptional regulator (antiterminator): 6.4
  Log2 Ratio vs Glc, LBA0725 PTS EIICBA: 9.7
  Log2 Ratio vs Glc, LBA0726 Phospho-β-glucosidase (GH1): 7.2
  Log2 Ratio vs Glc, LBA0728 Hypothetical protein: 6
  Log2 Ratio vs Glc, LBA0876 PTS EIIC: 4.4
  Log2 Ratio vs Glc, LBA0877 PTS EIIA: 4.6
  Log2 Ratio vs Glc, LBA1401 Peroxidase (Npx): 4.4
  Log2 Ratio vs Glc, LBA1411 Fumarate reductase flavoprotein subunit: 4
  Log2 Ratio vs Glc, LBA1433 Dihydroxyacetone kinase: 6
  Log2 Ratio vs Glc, LBA1434 Dihydroxyacetone kinase: 6.7
  Log2 Ratio vs Glc, LBA1435 Hypothetical protein: 7.1
  Log2 Ratio vs Glc, LBA1436 Glycerol uptake facilitator protein: 7.2
  Log2 Ratio vs Glc, LBA1632 NAD-dependent aldehyde dehydrogenase: 4.4
  Log2 Ratio vs Glc, LBA1684 PTS EIIA: 6.6
  Log2 Ratio vs Glc, LBA1689 Maltose-6′-phosphate glucosidase (GH4): 5.3
  Log2 Ratio vs Glc, LBA1701 Melibiose operon regulatory protein: 5.3
  Log2 Ratio vs Glc, LBA1709 Mucus binding protein precursor: 4.5
  Log2 Ratio vs Glc, LBA1797 Hypothetical protein: 4.7
  Log2 Ratio vs Glc, LBA1812 α-Glucosidase II (GH31): 5.3
  Log2 Ratio vs Glc, LBA1869 β-Phosphoglucomutase: 6.7
  Log2 Ratio vs Glc, LBA1871 Neopullulanase (GH13): 4.3
  Log2 Ratio vs Glc, LBA1873 Acetate kinase: 4.6
  Log2 Ratio vs Glc, LBA1974 Pyruvate oxidase: 5.5
